Measured values reported in US10226452B2, “Benzoxazolone derivatives as acid ceramidase inhibitors, and their use as medicaments” (FONDAZIONE ISTITUTO ITALIANO DI TECNOLOGIA, priority 2014, dated 2019).

Columns and labels:
SW403 cells = test: cells; conditions: Homo sapiens, SW-403, read-out: EC50, SW403 cell viability
Source text: Combinatory index calculation of cell viability data analyzed with CompuSyn Software. The resulting combination index (CI) offers quantitative definition for additive effect (CI=1), synergism (CI<1), and antagonism (CI>1) in drug combinations. Results are expressed as mean±s.e.m. (n=8-16) of three independent experiments.
Finally, the CellTiter-Glo® Luminescent Cell Viability Assay can be used to determine the number of viable cells in culture based on quantitation of the ATP present, which signals the presence of metabolically active cells. Briefly, a volume of CellTiter-Glo® Reagent equal to the volume of cell culture medium present in each well is added to 96-well plates after drug treatment. Contents are mixed for 2 minutes on an orbital shaker to induce cell lysis and plate was incubated at room temperature for 10 minutes to stabilize signal before reading luminescence.
The compounds were added to the cultures once every 24 hours over a period of 72 hours and the effects of the combined treatments were evaluated using CompuSyn Software.

[1] = target: human (hAC) acid ceramidase (Homo sapiens (Human), UniProt Q13510); test: fluorescent-based in vitro assay on human acid ceramidase; type: biochemical; conditions: hAC-enriched lysosomal lysate from HEK293 cells; fluorogenic probe 5 μM; pH 4.5
Chain of human (hAC) acid ceramidase (Q13510 22-142): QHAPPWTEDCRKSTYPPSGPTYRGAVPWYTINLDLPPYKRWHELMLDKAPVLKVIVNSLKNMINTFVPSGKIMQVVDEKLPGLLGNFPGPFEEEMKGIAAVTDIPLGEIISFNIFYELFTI
Chain of human (hAC) acid ceramidase (Q13510 143-395): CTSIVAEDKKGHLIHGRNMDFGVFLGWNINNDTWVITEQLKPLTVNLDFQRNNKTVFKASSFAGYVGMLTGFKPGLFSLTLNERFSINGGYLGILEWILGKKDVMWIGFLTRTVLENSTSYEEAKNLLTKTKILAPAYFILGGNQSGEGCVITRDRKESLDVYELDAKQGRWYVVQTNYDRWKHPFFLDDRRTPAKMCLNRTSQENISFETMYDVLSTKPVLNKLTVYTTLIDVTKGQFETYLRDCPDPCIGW
Source text: To evaluate the potency of the compounds towards acid ceramidase, a fluorescence-based in vitro assay previously described in literature (Bedia C et al., ChemBioChem, 2007, 8, 642-648) was implemented and optimized. This assay is based on a “fluorogenic probe” containing a coumarin group and a sphingoid base moiety (see figure below), which is not fluorescent in itself, but upon enzymatic cleavage by acid ceramidase followed by a chemical transformation liberates the fluorescent molecule umbelliferone (7-hydroxychromen-2-one). By quantifying the generation of umbelliferone using a fluorescence plate-reader, the level of enzymatic activity can be measured, whereby IC50 values of compounds that inhibit this activity can be generated.
Lysosomal lysate, enriched with acid ceramidase, was prepared from a cell line stably expressing human acid ceramidase. In the assay, the fluorogenic probe (or substrate) serves as a ceramide-analogue, which is recognized and hydrolyzed at the amide bond by acid ceramidase from the enriched lysate to yield the fatty acid and coumarinic aminodiol. By treating the solution with sodium periodate (NaIO4), the coumarinic aminodiol is subsequently oxidized into an aldehyde intermediate, which undergoes a β-elimination reaction to release the strongly fluorescent umbelliferone.
A lysosomal human acid ceramidase protein preparation was obtained from HEK293 cells stably expressing acid ceramidase suspended in 20 mM Tris HCl (pH 7.5) with 0.32 M sucrose. The cell solution was sonicated and centrifuged at 800×g for 15 min at 4° C. Supernatants were then centrifuged at 12,000×g for 30 min at 4° C. Pellets were re-suspended in PBS pH 7.4 and subjected to two freeze-thaw cycles at −80° C. The suspension was finally centrifuged at 105,000×g for 1 hour at 4° C. and protein concentration was measured in the supernatant with bicinchinonic-acid based protein assay. This human acid ceramidase-enriched preparation allowed us to further optimize the enzymatic assay and to use smaller amounts of lysate (2 μg/well) and substrate (5 μM).
The assay was performed in Optiplate 96-wells black plates, with each reaction well containing a mixture of 25 mM sodium acetate buffer pH 4.5 and a fixed amount of protein (2 μg) in a volume of 85 μL. After 30 mins of pre-incubation with test compounds (diluted 20× from DMSO stock solutions at different concentrations), the fluorogenic probe was added (diluted 20× from EtOH stock solution, final concentration 5 μM). After incubation for 3 hours at 37° C., the reactions were stopped with 50 μL of methanol and 100 μL of a 2.5 mg/mL NalO4 fresh solution in 100 mM Glycine/NaOH pH 10.6. The plate was incubated at 37° C. for 2 hours in the dark and fluorescence intensities were measured at excitation/emission wavelengths of 360/446 nm. Negative control samples consisted of the same incubation mixture in the absence of protein extracts. The IC50 values or percent of inhibition, at the indicated concentration, of selected compounds described in the invention are reported in Table 2.

| EC50 (SW403 cells) | IC50 [1] | SMILES |
| --- | --- | --- |
| 736 nM |  | O=c1[nH]cc(F)c(=O)[nH]1 [Example 5-FU, 5-fluorouracil] |
|  | 16 ± 14 nM | CCC(=O)c1ccc2c(c1)oc(=O)n2C(=O)NCCCCc1ccccc1 [Example 36, 2-Oxo-N-(4-phenylbutyl)-6-propanoyl-1,3-benzoxazole-3-carboxamide] |
|  | 22 ± 11 nM | O=C(NCCCCc1ccccc1)n1c(=O)oc2ccc(Br)cc21 [Example 6, 5-Bromo-2-oxo-N-(4-phenylbutyl)-1,3-benzoxazole-3-carboxamide] |
